From ChEMBL document CHEMBL1201862, “PubChem BioAssay data set” (2004)
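The compound was tested at five concentrations on cells cultured in 96-well plates, with a 48-hour exposure period. GI50: concentration for 50% inhibition of growth.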 The source made the active and inactive calls. Rule as the data show it: active = GI50 up to about 1.1 µM and inactive = higher. Peptide text beside a SMILES is read from it. * marks the point of attachment. Cbz = O=C(OCc1ccccc1)*

Assays:
Assay in all cases: DTP human tumour cell line panel, 48 h
A549 = test system: A549
NCI-H522 = test system: NCI-H522
UACC-257 = test system: UACC-257
SK-OV-3 = test system: SK-OV-3
OVCAR-4 = test system: OVCAR-4
NCI/ADR-RES = test system: NCI/ADR-RES
UACC-62 = test system: UACC-62
SNB-19 = test system: SNB-19
MDA-MB-435 = test system: MDA-MB-435
SR = test system: SR
HL-60 = test system: HL-60
MDA-MB-231 = test system: MDA-MB-231
OVCAR-5 = test system: OVCAR-5
MOLT-4 = test system: MOLT-4
SF-539 = test system: SF-539
K562 = test system: K562
786-0 = test system: 786-0
CCRF-CEM = test system: CCRF-CEM
LOX IMVI = test system: LOX IMVI

Row | Compound | GI50 (A549) | GI50 (NCI-H522) | GI50 (UACC-257) | GI50 (SK-OV-3) | GI50 (OVCAR-4) | GI50 (NCI/ADR-RES) | GI50 (UACC-62) | GI50 (SNB-19) | GI50 (MDA-MB-435) | GI50 (SR) | GI50 (HL-60) | GI50 (MDA-MB-231) | GI50 (OVCAR-5) | GI50 (MOLT-4) | GI50 (SF-539) | GI50 (K562) | GI50 (786-0) | GI50 (CCRF-CEM) | GI50 (LOX IMVI)
1 | Cc1cc2c(cc1Cl)SC(NS(=O)(=O)c1ccc(Cl)cc1)=NS2(=O)=O | > 100 µM (inactive) | 21.7 µM (inactive) | 46.8 µM (inactive) | > 100 µM (inactive) | 39.4 µM (inactive) | > 100 µM (inactive) | > 100 µM (inactive) | 65.6 µM (inactive) | 91.6 µM (inactive) | 10.3 µM (inactive) | > 100 µM (inactive) | 67.6 µM (inactive) | 35.4 µM (inactive) | 16.9 µM (inactive) | 18.3 µM (inactive) | 41.9 µM (inactive) | > 100 µM (inactive) | 56.8 µM (inactive) | 49.2 µM (inactive)
2 | Cc1cc(Nc2ccc(S(=O)(=O)O)cc2)c2ccccc2n1 | > 100 µM (inactive) | > 100 µM (inactive) | > 100 µM (inactive) | > 100 µM (inactive) | > 100 µM (inactive) | > 100 µM (inactive) | > 100 µM (inactive) | > 100 µM (inactive) | > 100 µM (inactive) | > 100 µM (inactive) | > 100 µM (inactive) | > 100 µM (inactive) | > 100 µM (inactive) | > 100 µM (inactive) | > 100 µM (inactive) | > 100 µM (inactive) | > 100 µM (inactive) | > 100 µM (inactive) | > 100 µM (inactive)
3 | C[C@]12Cc3cnc(-c4ccccc4)nc3C[C@@H]1CC[C@@H]1[C@@H]2CC[C@@]2(C)[C@H]1CC[C@]2(C)O | 12.8 µM (inactive) | 10.7 µM (inactive) | 20.2 µM (inactive) | 18 µM (inactive) | 14.4 µM (inactive) | 15.4 µM (inactive) | 11.2 µM (inactive) | 18.5 µM (inactive) | 20.8 µM (inactive) | 6.59 µM (inactive) | 17.9 µM (inactive) | 18.8 µM (inactive) | 14.3 µM (inactive) | 34.3 µM (inactive) | 1.33 µM (inactive) | 2.96 µM (inactive) | 10.2 µM (inactive) | 13.9 µM (inactive) | 4.6 µM (inactive)
4 | CC(CCC(=O)O)C(=O)O (centres undefined) | > 100 µM (inactive) | > 100 µM (inactive) | > 100 µM (inactive) | > 100 µM (inactive) | > 100 µM (inactive) | > 100 µM (inactive) | > 100 µM (inactive) | > 100 µM (inactive) | > 100 µM (inactive) | > 100 µM (inactive) | > 100 µM (inactive) | > 100 µM (inactive) | > 100 µM (inactive) | > 100 µM (inactive) | > 100 µM (inactive) | > 100 µM (inactive) | > 100 µM (inactive) | > 100 µM (inactive) | > 100 µM (inactive)
5 | Clc1cc2c(cc1Cl)CC(NCCN1CCCC1)CC2 (centres undefined) | 14.8 µM (inactive) | 17.1 µM (inactive) | 7.82 µM (inactive) | 17.7 µM (inactive) | 17.2 µM (inactive) | 13.7 µM (inactive) | 2.87 µM (inactive) | 20.5 µM (inactive) | 3.73 µM (inactive) | 10.6 µM (inactive) | 14.6 µM (inactive) | 15.1 µM (inactive) | 14.6 µM (inactive) | 20.5 µM (inactive) | 13.6 µM (inactive) | 10.8 µM (inactive) | 13.2 µM (inactive) | 26.4 µM (inactive) | 13.3 µM (inactive)
6 | CCc1nc2ccc(NCCN(C)C)c3c(=O)c4ccccc4n1c23 | 0.38 µM (active) | 0.946 µM (active) | 2.48 µM (inactive) | 1.69 µM (inactive) | 1.02 µM (active) | 0.431 µM (active) | 2.14 µM (inactive) | 2.57 µM (inactive) | 1 µM (active) | 0.193 µM (active) | 1.75 µM (inactive) | 0.135 µM (active) | 1.67 µM (inactive) | 0.175 µM (active) | 1.67 µM (inactive) | 0.468 µM (active) | 0.479 µM (active) | 0.586 µM (active) | 0.6 µM (active)
7 | C1CSCCCSCCCSCCCSCCCSC1 | 28.5 µM (inactive) | 27.2 µM (inactive) | 25.5 µM (inactive) | 34.4 µM (inactive) | 22.5 µM (inactive) | 14.9 µM (inactive) | 44.6 µM (inactive) | 37.9 µM (inactive) | 41.9 µM (inactive) | 11.4 µM (inactive) | 14.2 µM (inactive) | 29.2 µM (inactive) | 57.8 µM (inactive) | 9.82 µM (inactive) | 43.7 µM (inactive) | 21.4 µM (inactive) | 40.2 µM (inactive) | 8.55 µM (inactive) | 17.4 µM (inactive)
8 | O=C(O)CCC(NC(=O)OCc1ccccc1)C(=O)NC(Cc1c[nH]cn1)C(=O)O (stereo not drawn) (Cbz-Glu-His-OH; configuration not given here) | > 100 µM (inactive) | > 100 µM (inactive) | > 100 µM (inactive) | > 100 µM (inactive) | > 100 µM (inactive) | > 100 µM (inactive) | > 100 µM (inactive) | > 100 µM (inactive) | > 100 µM (inactive) | > 100 µM (inactive) | > 100 µM (inactive) | 37.1 µM (inactive) | > 100 µM (inactive) | > 100 µM (inactive) | > 100 µM (inactive) | > 100 µM (inactive) | > 100 µM (inactive) | > 100 µM (inactive) | > 100 µM (inactive)
9 | Cc1ccc(-c2nnc(-c3ccc4ccccc4c3)o2)cc1 | > 100 µM (inactive) | 69.7 µM (inactive) | 22.2 µM (inactive) | 56.2 µM (inactive) | 40.3 µM (inactive) | 12.7 µM (inactive) | 13 µM (inactive) | > 96.6 µM (inactive) | 8.11 µM (inactive) | 7.36 µM (inactive) | 2.93 µM (inactive) | 25.8 µM (inactive) | > 61.8 µM (inactive) | 3.13 µM (inactive) | 19.6 µM (inactive) | 7.26 µM (inactive) | 11.9 µM (inactive) | 3.55 µM (inactive) | 11.3 µM (inactive)
10 | CN(N=O)c1ccc(/C=C/c2ccnc3ccccc23)cc1 | 41.6 µM (inactive) | 46.6 µM (inactive) | 72.4 µM (inactive) | > 100 µM (inactive) | > 100 µM (inactive) | 83.4 µM (inactive) | 50.7 µM (inactive) | 46.5 µM (inactive) | > 100 µM (inactive) | 31.8 µM (inactive) | 92.3 µM (inactive) | 88.7 µM (inactive) | > 100 µM (inactive) | 34 µM (inactive) | 88.5 µM (inactive) | 78.9 µM (inactive) | 46.5 µM (inactive) | 47.3 µM (inactive) | 36.3 µM (inactive)
11 | CC(C)(C)OC(=O)NC(CCC(=O)OCc1ccccc1)C(=O)NCCCO (centres undefined) | > 100 µM (inactive) | > 100 µM (inactive) | > 100 µM (inactive) | > 100 µM (inactive) | > 100 µM (inactive) | > 100 µM (inactive) | > 100 µM (inactive) | > 100 µM (inactive) | > 100 µM (inactive) | > 100 µM (inactive) | > 100 µM (inactive) | > 100 µM (inactive) | > 100 µM (inactive) | > 100 µM (inactive) | > 100 µM (inactive) | > 100 µM (inactive) | > 100 µM (inactive) | > 100 µM (inactive) | > 100 µM (inactive)
